Source: ChEMBL document CHEMBL1141966, “Novel triazole based inhibitors of Ras farnesyl transferase” (Bioorg Med Chem Lett, 2005)

What follows are compounds tested against Protein farnesyltransferase (Homo sapiens, UniProt P49354+P49356) (assay: Inhibitory activity against K-Ras farnesyl transferase).
Assay type: protein-complex assay

Point of comparison: `N#Cc1ccc(Cn2cnnc2CN(CCc2ccc(Br)cc2)C(=O)c2cc3ccccc3o2)cc1`, IC50 53.2 nM. Against it:
- COc1ccc(CCN(Cc2nncn2Cc2ccc(C#N)cc2)C(=O)c2ccc3ccccc3n2)cc1 — within 1.5-fold, 75 nM
- N#Cc1ccc(Cn2cnnc2CN(C(=O)c2ccc3ccccc3n2)c2ccc(Oc3ccccc3)cc2)cc1 — within 1.5-fold, 44 nM
- N#Cc1ccc(Cn2nnnc2CN(Cc2ccc(F)cc2F)C(=O)c2ccc3ccccc3n2)cc1 — higher, > 1000 nM
- N#Cc1ccc(Cn2cnnc2CN(Cc2ccc(F)cc2F)C(=O)c2ccc3ccccc3c2)cc1 — 24-fold lower, 2.2 nM
- N#Cc1ccc(Cn2cnnc2CN(CCc2ccc(F)cc2)C(=O)c2ccc3ccccc3n2)cc1 — 2.8-fold lower, 19 nM
- N#Cc1ccc(Cn2cnnc2CN(Cc2ccc([N+](=O)[O-])cc2)C(=O)c2ccc3ccccc3n2)cc1 — 33-fold lower, 1.6 nM
- N#Cc1ccc(Cn2cnnc2CN(CCc2ccc(Br)cc2)C(=O)c2cc3ccccc3s2)cc1 — 1.7-fold higher, 89.3 nM
- N#Cc1ccc(Cn2cncc2CN(Cc2ccc(F)cc2F)C(=O)c2ccc3ccccc3n2)cc1 — 3.5-fold higher, 187 nM
- N#Cc1ccc(Cn2cnnc2CN(CCc2ccc(Br)cc2)C(=O)c2ccc3ccccc3c2)cc1 — 1.9-fold lower, 28.3 nM
- N#Cc1ccc(Cn2cnnc2CN(CCc2ccc(Br)cc2)C(=O)c2ccc3ccccc3n2)cc1 — 2-fold lower, 26 nM
- N#Cc1ccc(Cn2cnnc2CN(CCc2ccc(Br)cc2)C(=O)c2ccc3c(c2)OCO3)cc1 — within 1.5-fold, 61 nM
- N#Cc1ccc(Cn2cnnc2CN(Cc2ccc(F)cc2)C(=O)c2ccc3ccccc3n2)cc1 — 11-fold lower, 5 nM
- N#Cc1ccc(Cn2cnnc2CN(Cc2ccc(F)cc2F)C(=O)c2ccc3ccccc3n2)nc1 — 9.7-fold lower, 5.5 nM
- Cc1nnc(CN(Cc2ccc(F)cc2F)C(=O)c2ccc3ccccc3n2)n1Cc1ccc(C#N)cc1 — 59-fold lower, 0.9 nM
- N#Cc1ccc(Cn2cnnc2CN(Cc2ccc(F)cc2F)C(=O)c2ccc3ccccc3n2)cc1 — 15-fold lower, 3.5 nM
- N#Cc1ccc(Cn2cnnc2CN(CCc2ccc(Br)cc2)C(=O)c2ccco2)cc1 — 1.9-fold higher, 99.3 nM
- COc1cc(C(=O)N(CCc2ccc(Br)cc2)Cc2nncn2Cc2ccc(C#N)cc2)nc2ccccc12 — 1.8-fold higher, 96.5 nM
